# According to patent publication US9011863B2, “Combinations of kinase inhibitors for the treatment of cancer” (Exelixis, Inc., priority 2010, dated 2015):
# Key:
# FoxO1 and FoxO3a = assay: cytoplasmic and nuclear fractionation, FoxO immunoblot; type: cell-based, human; conditions: BT474 and MDA453; 6 μM compound A or 2 μM 5J8; 4 hours
# Procedure: Nuclear (Nu) and cytoplasmic (Cy) extracts were isolated and subjected to immunoblotting with FoxO1 and FoxO3a antibodies. Loading controls for Nu: HDAC3; for Cy: RhoA (BT474) and MEK1/2 (MDA453).
# Cytoplasmic and nuclear extracts were prepared using the Nuclear Extract Kit from Active Motif. Briefly, cells were plated in 100-mm dishes, treated with inhibitors at the indicated concentrations for 3-4 hours, washed with ice-cold PBS/phosphatase inhibitors, lysed in hypotonic buffer and centrifuged for 30 seconds at 14,000 rpm at 4° C. to collect the supernatant (cytoplasmic extract). The pellet (nuclear fraction) was resuspended in complete lysis buffer and centrifuged for 10 minutes at 14,000 rpm at 4° C. to collect the supernatant (nuclear fraction).
# HER3 protein = assay: half-life of the HER3 protein with cycloheximide; type: cell-based, human; conditions: BT474 cells
# Procedure: The half-life of the HER3 protein in absence and presence of compound A was determined using cycloheximide, an inhibitor of protein synthesis. […] Next the levels of HER3 mRNA was examined by qPCR upon inhibition of PI3K over a time course using the approximate IC50 of compound A (6 μM).
# [1] = tested on: receptors of tyrosine kinase (RTKs) in BT474 cells; assay: phospho-RTK arrays and RTK qPCR in BT474 cells; type: cell-based, human
# Procedure: FIG. 19B depicts a photomicrograph of BT474 cells were treated with 6 μM compound A over a time course up to 24 hours as indicated. Cell lysates were prepared, and 200 μg of total protein were hybridized to arrays containing probes for 42 different receptors of tyrosine kinase (RTKs).
# FIG. 19C depicts a photomicrograph of BT474 cells were treated with 6 μM compound A over a time course up to 24 hours as indicated.
# FIG. 19D depicts a bar-graph representing the amount of RTK mRNA as identified using real-time qPCR analysis of the indicated RTKs in RNA collected from BT474 cells treated with either DMSO or 10 μM compound A for 6 hours.
# Immunoprecipitation, immunoblotting, and RTK assays were performed according to published methods. Primary antibodies included AKT, pAKT^S473, pAKT^T308, ERK, pERK^T202/Y204, pHER2^Y1248, pHER3^Y1197, pHER3^Y1222, pHER3^Y1289, S6, pS6^S240/244, p27, pRb^S780, FoxO1, FoxO3a, MEK1/2 (Cell Signaling Technology, Danvers, Mass., USA), p85, 4G10 pTyr (Millipore, Billerica, Mass., USA), HER3, CyclinD1, RhoA, HDAC3 (Santa Cruz Biotechnology, Santa Cruz, Calif., USA), PARP (BD Transduction Laboratories), β-actin (Sigma, St. Louis, Mo., USA), and HER2 (Neomarkers, division of Thermo Scientific, Freemenot, Calif., USA). […] Immunoreactive signals were detected by enhanced chemilluminsecence (Pierce, Rockford, Ill., USA). […]
# BT474 xenografts = assay: BT474 xenograft experiments; type: in vivo, mice; conditions: trastuzumab 30 mg/kg twice-a-week i.p.; lapatinib 100 mg/kg daily; compound A 100 mg/kg daily gavage; 28 days
# Procedure: Tumor volumes were recorded twice-a-week. Each data point represents the mean tumor volume in mm^3±SE of 8 mice per type of treatment. CR=complete response to treatment.
# Animal experiments were approved by the Institutional Animal Care Committee of Vanderbilt University Medical Center (VUMC). Mice were housed in the accredited Animal Care Facility of the VUMC. A 17β-estradiol pellet (Innovative Research of America) was injected subcutaneously (s.c.) into each 6- to 7-week-old athymic female mice (Harlan Sprague Dawley, Inc.) the day before tumor cell injection. BT474 cells (3×10^6) mixed 1:1 with Matrigel (BD Biosciences) were injected s.c. into the right flank of each mouse. Tumor diameters were measured with calipers twice-a-week and volume in mm^3 calculated with the formula: volume=width^2×length/2. […] Mice were euthanized after 28 days of treatment.
# There was no significant drug-related toxicity in any of the treatment arms.
# HER3 mRNA = assay: real-time qPCR of HER3 mRNA; type: cell-based, human; conditions: BT474, SKBR3, MDA453 cells; 6 μM; time course up to 48 hours
# Procedure: FIG. 12B depicts a bar chart of timed HER3 mRNA transcription in BT474 cells which were treated with 2 μM 5J8, 20 μM LY294002, and 50 nM rapamycin for 10 hours prior to RNA isolation and qPCR analysis with HER3-specific primers.
# [2] = tested on: pAKT, pS6, HER3, pHER3, HER2 in human breast cancer cell lines; assay: immunoblotting of PI3K/AKT pathway markers; type: cell-based
# Procedure: Immunoprecipitation, immunoblotting, and RTK assays were performed according to published methods. Primary antibodies included AKT, pAKT^S473, pAKT^T308, ERK, pERK^T202/Y204, pHER2^Y1248, pHER3^Y1197, pHER3^Y1222, pHER3^Y1289, S6, pS6^S240/244, p27, pRb^S780, FoxO1, FoxO3a, MEK1/2 (Cell Signaling Technology, Danvers, Mass., USA), p85, 4G10 pTyr (Millipore, Billerica, Mass., USA), HER3, CyclinD1, RhoA, HDAC3 (Santa Cruz Biotechnology, Santa Cruz, Calif., USA), PARP (BD Transduction Laboratories), β-actin (Sigma, St. Louis, Mo., USA), and HER2 (Neomarkers, division of Thermo Scientific, Freemenot, Calif., USA). Species-specific horseradish peroxidase-conjugated secondary antibodies were from Promega (Madison Wis., USA). Immunoreactive signals were detected by enhanced chemilluminsecence (Pierce, Rockford, Ill., USA). Phospho-RTK arrays were from R&D Systems (Minneapolis, Minn., USA) total cell lysates were used to hybridize with the arrays according to the manufacturer's instructions.
# A panel of breast cancer cell lines with dysregulated PI3K activity was treated with increasing doses of compound A under two- and three-dimensional (2D and 3D) growth conditions. All experiments were conducted in 2.5% FBS-containing media, unless otherwise stated. […] This was further confirmed by immunoblot analysis of biomarkers of cell death and G1-S cell cycle transition in lysates from cells treated for 24 hours with compound A as shown in FIG. 10B.
# Experiments were performed to examine the effect of compound A on a more comprehensive panel of molecules in the PI3K and TOR signaling pathways.
# Although pHER3 is known to activate the extracellular signal regulated kinase (ERK/MAPK) via its interaction through the adaptor protein Shc, recovery of pERK upon feedback reactivation of HER3 was not detected consistently as shown in FIG. 13A.
# [3] = tested on: subcutaneous A-549 human lung xenografts; assay: antitumor activity in A549 xenografts; type: in vivo, Swiss nude mice; conditions: for activity rating: compound A at 30 mg/kg PO daily (text), 30 mg/kg
# Source text: Control groups were left untreated.
# Animal body weights included the tumor weights.
# [4] = concentrations below 20 μM, 24 hours
# [5] = Compound A PO 5 (160) mg/kg Q1Dx32
# [6] = Compound A PO 100 (3200) mg/kg Q1Dx32
structure (smiles),measurement,setting,value
COc1ccc(Cl)c(Nc2nc3ccccc3nc2NS(=O)(=O)c2cccc(NC(=O)C(C)(C)N)c2)c1 [Compound A],subcellular distribution of FoxO1 and FoxO3a,FoxO1 and FoxO3a,accumulation of both FoxO factors in the nucleus of BT474 and MDA453 cells
same,rate of decay of the HER3 protein,HER3 protein,not significantly altered
same,phospho-RTK arrays,"[1]; BT474, 6 μM, 24-h time course","increase in not only HER3, but also multiple other RTKs"
same,RTK mRNAs by qPCR,"[1]; BT474, 10 μM, 6 hours","increase in ERBB4, IGF-IR, InsR, EphA1, FGFR2, and FGFR3 mRNAs"
same,"tumor growth, monotherapy",BT474 xenografts,significantly delayed tumor growth
same,HER3 mRNA levels,HER3 mRNA,increase in HER3 mRNA that appeared maximal at 6 hours and was maintained up to 48 hours
same,cell lines with upregulation of total HER3 and/or pHER3^Y1289 levels,[2]; 24 hours,6/7
same,time to recovery of pAKT and pS6 levels,"[2]; BT474, 6 μM",≤ 6 hours
same,"total HER3, pHER3, pAKT time course","[2]; BT474, 6 μM, 0-72 hours","time-dependent upregulation of total HER3, HER3 phosphorylated at Y1197 and Y1289"
same,HER3 RNA and protein time course,"[2]; BT-474 cells, 6 uM, inhibitor added every 24 hours","time-dependent upregulation of HER3 RNA and protein, beginning at 6 hours and increasing through 72 hours"
same,catalytic activity or autophosphorylation of HER2,[2]; HER2-overexpressing cells,does not affect the catalytic activity or autophosphorylation of HER2
same,P-Erk,"[2]; SKBR-3 and MDA-453 cells, like in BT-474",P-Erk is upregulated
same,pAKT^S473/T308 and pS6^S240/244,"[2]; all cell lines, 0-20 μM",dose-dependent reduction in pAKT^S473/T308 and pS6^S240/244
same,PI3K signaling as measured by pAKT^S473,"[2]; all cell lines, 24 hours, 0-20 μM",dose-dependent inhibition of PI3K signaling
same,"cyclin D1, pRB, p27^KIP1",[2]; [4],reduction in cyclin D1 and pRB and an increase in levels of the CDK inhibitor p27^KIP1
same,total or cleaved PARP,[2]; [4],no change in levels of total or cleaved PARP
same,HER2-overexpressing cell lines with modest upregulation of total HER2 and/or pHER2^Y1248,[2]; upon inhibition of PI3K,5/6
same,Biological response at day 68,[3]; [5],Very
same,Median ΔT/ΔC in % day 68,[3]; [5],5%
same,Biological response at day 68,[3]; [6],highly active
same,Median % of regression on day 68,[3]; [6],15%
same,Median ΔT/ΔC in % day 68,[3]; [6],−4%
same,Biological response at day 68,"[3]; Compound A PO 100 (3200) mg/kg Q1Dx32, listed as compound A",high activity
same,ΔT/ΔC (treated vs control tumor volume change),[3]; compound A at 30 mg/kg PO daily,5%
same,activity rating,[3],very active
same,activity rating,[3]; listed as compound A,high activity
